According to patent US9326511B2, “Methods of inhibiting microbial biofilms” (priority 2008, dated 2016):
Marks after values point to notes of the source that are not given here.

Legend:
E. coli cells = test: Binding of compounds with bacterial cells (spectrofluorimetric analysis of cell lysates); conditions: 5 min incubation
Method: […] At the end of the incubation period, the cells were sedimented by centrifugation to remove the fraction of unbound test compound and the cell pellet was resuspended in 2 ml of 2% SDS to obtain cell lysates. After overnight incubation with SDS, the amount of cell-bound test compound was estimated by spectrofluorimetric analysis of the cell lysates. The concentration of the compounds in the cell lysates was calculated by measuring the intensities at the maximum of the emission fluorescence spectrum and interpolating the data on a calibration plot. The amount of cell-bound test compound was expressed as nmoles of compound per mg of cell protein. The protein concentration was determined by the method of Lowry (Lowry et al., 1951, J. Biol. Chem. 193:265-275).
All experiments were run in triplicate and the results represent the average of 3 determinations with standard deviations.

[1] = tested on: stringent S. aureus SH1000 cultures; test: Time-kill against cultures expressing the stringent response (induced with mupirocin); assay type: cell-based, Staphylococcus aureus; conditions: for viability / bactericidal activity in time-kill (in words): stringent response induced with mupirocin, agents at 4×MIC
Method: (§1) Methods: MICs were determined for planktonic cultures by broth microdilution according to British Society for Antimicrobial Chemotherapy (BSAC) guidelines. Biofilm MICs (bMIC) and minimum biofilm eradication concentrations (MBECs) were determined using the Calgary biofilm device. The effect of Compound 10 on the viability of cold culture cells was determined by growing S. aureus SH1000 to early exponential phase at 37° C. and resuspending the cells in pre-chilled media, where they were maintained in the presence and absence of Compound 10 and control agents. The effect of Compound 10 on slow growing cells expressing the stringent response was also determined by growing cultures to early log phase and the stringent response induced by the addition of the isoleucyl-tRNA synthetase inhibitor mupirocin. Compound 10 and control agents were then added and samples recovered for viable cell determinations.
When nutrients become limiting for growth bacteria adjust their metabolism from one that supports growth to one that provides for long survival in the absence of nutrients. In many bacteria a key facilitator of this physiological switch, known as the stringent response, is accumulation of guanosine […] and pentaphosphate (Traxler et al., 2008). The antibiotic mupirocin is a strong inducer of the stringent response in S. aureus and effectively causes starvation of charged isoleucyl tRNA by potent inhibition of isoleucy ItRNA synthetase (IRS) (Oliva et al., 2003). The activity of XF drugs against S. aureus SH1000 prevented from growing by the addition of mupirocin (Oliva et al., 2003), was therefore examined (FIG. 10). As an alternative method for arresting growth, bacteria were suspended in cold growth medium (Mascio et al., 2007) and the bactericidal activity of XF drugs was also determined under these conditions (FIG. 11).
(§2) The anti-staphylococcal activities of Compound 10, Compound 12 and a range of comparator agents against slow-growing cultures of Staphylococcus aureus were studied using standard time-kill methodology (Oliva et al. 2003, Hobbs et al. 2008). Staphylococcus aureus SH1000 cultures were grown to early exponential phase (OD600 nm of 0.2) in Mueller-Hinton broth (MHB) before being exposed to antibacterial agents at 4×MIC. An untreated culture served as the negative control. The experiments were undertaken in triplicate.
The antibiotic mupirocin is a strong inducer of the stringent response in S. aureus and causes starvation of charged isoleucyl tRNA by potent inhibition of isoleucyl tRNA synthetase (IRS) (Oliva et al. 2003, Cassels et al. 1995) Stringency was induced in SH1000 cultures by adding mupirocin (4 mg/L) to cells in the early exponential growth phase (OD600 nm of 0.2) (Oliva et al. 2003, Cassels et al. 1995). Cultures were incubated with mupirocin for 30 minutes before sampling began. Cultures were maintained at 37° C., and samples were taken at 30 minute intervals for 300 minutes, serially diluted in phosphate buffered saline (PBS) and diluted culture was spread on Mueller-Hinton agar and was incubated at 37° C. for 18-24 hours before the number of CFU were counted.

[2] = tested on: S. aureus SH1000 cold cultures; test: Time-kill against cold cultures (4° C.); assay type: cell-based, Staphylococcus aureus; conditions: for viability / bactericidal activity in time-kill (in words): cold culture held at 4° C. for 5 hours, agents at 4×MIC
Method: as §1
The effect of XF drugs on the viability of cold culture cells was determined by growing S. aureus SH1000 to early exponential phase at 37° C., harvesting the cells by centrifugation (5,000×g, 10 min.) and resuspending them in pre-chilled media where they were maintained in the presence and absence of XF drugs and control agents for 5 hours. […] (FIG. 11).
as §2
Cold cultures were prepared by growing SH1000 cells to early exponential phase (OD600 nm of 0.2) at 37° C. Cultures were then centrifuged and the cell pellet was resuspended in MHB pre-chilled to 4° C. The killing kinetics of antimicrobial agents were studied as described in the section above, with the exception that cultures were maintained at 4° C. over the 5 hour sampling period.

[3] = tested on: Staphylococcus aureus BAA-44 (multi-drug resistant MRSA); test: MIC and MBC of Compound 10 in the absence of light (NCCLS-based broth dilution); assay type: cell-based; conditions: S. aureus BAA-44, subculture on nutrient agar, further 24 hours
Description: The minimum inhibitory concentration (MIC) for an antimicrobial agent against a specific microorganism is defined as the minimum concentration of an antibacterial agent where no apparent visible growth of the organism is observed (FDA definition of Minimum Inhibitory Concentration). MIC's are typically determined using concentrations derived traditionally from serial twofold dilutions (National Committee for Clinical Laboratory Standards (NCCLS) Handbook M7-A5: “Methods for Dilution Antimicrobial Susceptibility Tests for Bacteria that Grow Aerobically; Approved Standard—5th Edition” Volume 20 Number 2. January 2000). The MIC for Compound 10 in the absence of light was investigated, using a protocol based on the MIC protocol produced by the NCCLS (National Committee for Clinical Laboratory Standards (NCCLS) Handbook M7-A5, supra).
Staphylococcus aureus BAA-44, a multi-drug resistant Methicillin Resistant Staphylococcus aureus (MRSA) strain obtained from the ATCC catalogue, was used in this study. The following concentrations of Compound 10 were investigated: 0.764; 0.382; 0.191; 0.0955; 0.0478; 0.0239, 0.0119, 0.00597, 0.00298, 0.00149, 0.00075 & 0.00037 μg/mL. Stock solutions were made up in distilled water and serial dilutions undertaken of this to produce the required concentrations immediately prior to use […]

Which results are given for `C[N+](C)(C)CCCOc1cccc(-c2c3nc(cc4ccc([nH]4)c(-c4cccc(OCCC[N+](C)(C)C)c4)c4nc(cc5ccc2[nH]5)C=C4)C=C3)c1.[Cl-].[Cl-]` [Compound 12, 5,15-bis-[3-(3-Trimethylammonio-propyloxy)-phenyl]-porphyrin dichloride]?
Bound compound (E. coli cells; 0.01 μM compound, 0 washings): 0.041 ± 0.02 nmoles/mg cell proteins; Bound compound (E. coli cells; 0.01 μM compound, 3 washings): 0.021 ± 0.005 nmoles/mg cell proteins; Bound compound (E. coli cells; 0.1 μM compound, 0 washings): 0.151 ± 0.02 nmoles/mg cell proteins; Bound compound (E. coli cells; 0.1 μM compound, 3 washings): 0.089 ± 0.02 nmoles/mg cell proteins; Bound compound (E. coli cells; 0.5 μM compound, 0 washings): 0.806 ± 0.14 nmoles/mg cell proteins; Bound compound (E. coli cells; 0.5 μM compound, 3 washings): 0.622 ± 0.10 nmoles/mg cell proteins; Bound compound (E. coli cells; 1 μM compound, 0 washings): 2.70 ± 0.30 nmoles/mg cell proteins; Bound compound (E. coli cells; 1 μM compound, 3 washings): 1.930 ± 0.20 nmoles/mg cell proteins; viability / bactericidal activity in time-kill (in words) [1]: retained potent bactericidal activity; viability / bactericidal activity in time-kill (in words) [2]: retained potent bactericidal activity

Which results are given for `C[N+](C)(C)CCCOc1ccc(-c2c3nc(cc4ccc([nH]4)c(-c4ccc(OCCC[N+](C)(C)C)cc4)c4nc(cc5ccc2[nH]5)C=C4)C=C3)cc1.[Cl-].[Cl-]` [Compound 10, 5,15-bis-[4-(3-Trimethylammonio-propyloxy)-phenyl]-porphyrin dichloride]?
MBC [3]: 0.382* μg/mL; Bound compound (E. coli cells; 0.01 μM compound, 0 washings): 0.026 ± 0.005 nmoles/mg cell proteins; Bound compound (E. coli cells; 0.01 μM compound, 3 washings): 0.015 ± 0.0004 nmoles/mg cell proteins; Bound compound (E. coli cells; 0.1 μM compound, 0 washings): 0.274 ± 0.05 nmoles/mg cell proteins; Bound compound (E. coli cells; 0.1 μM compound, 3 washings): 0.078 ± 0.02 nmoles/mg cell proteins; Bound compound (E. coli cells; 0.5 μM compound, 0 washings): 1.542 ± 0.350 nmoles/mg cell proteins; Bound compound (E. coli cells; 0.5 μM compound, 3 washings): 0.334 ± 0.092 nmoles/mg cell proteins; Bound compound (E. coli cells; 1 μM compound, 0 washings): 2.70 ± 0.354 nmoles/mg cell proteins; Bound compound (E. coli cells; 1 μM compound, 3 washings): 1.278 ± 0.102 nmoles/mg cell proteins; drop in viability ([1]; stringent response cultures, 4×MIC, within 1 hour): 5 log; viability / bactericidal activity in time-kill (in words) [1]: retained potent bactericidal activity; drop in viability ([2]; cold culture (4° C.), 4×MIC, within 1 hour): 5 log; viability / bactericidal activity in time-kill (in words) [2]: retained potent bactericidal activity
